Columns and labels:
[1] = tested on: bronchoconstricting effects of a standard dose of acetylcholine; experiment: Bronchodilation upon aerosol inhalation in the guinea pig (method of Rosenthale et al.): inhibition of acetylcholine bronchoconstriction; format: in vivo
From the text: In using the compounds of the invention to produce bronchodilating effects in warm-blooded animals, they may be administered in a variety of dosage forms: oral, injectable, and aerosol inhalation. Aerosol inhalation is a preferred method because of its rapid onset of action, great potency, and specificity of action. The particular dosage to obtain the bronchodilating effect will vary with the particular compound employed, the particular animal involved, and the degree of bronchodilation desired. In the guinea pig, by aerosol inhalation, the dose to produce bronchodilation is from about 0.015 micrograms to about 50 micrograms, and preferably from about 0.015 to about 25 micrograms. The bronchodilation produced upon aerosol inhalation can be observed by the method of Rosenthale et al., J. Pharmacol. Exp. Ther., 178, 541 (1971). Using this procedure the following result was obtained.

[2] = Hypotensive effect in the anesthetized dog, intravenous route; format: in vivo; conditions: dose 100 μg/kg
Protocol: In the use of the compounds of the invention to produce hypotensive effects in warm-blooded animals, administration by the injectable route is preferred, preferably the intravenous route.
Thus in the anesthetized dog by the intravenous route the dose to produce hypotension is from about 1 μg/kg. to about 200 μg/kg. and preferably from about 10 μg/kg. to about 100 μg/kg. Using this procedure the following results were obtained.

## C#C[C@@](O)(/C=C/[C@@H]1[C@@H](C/C=C\CCCC(=O)O)[C@H](O)C[C@H]1O)CCCCC [7-(2β-[(3S)-3-Ethynyl-3-Hydroxy-Trans-1-Octenyl]-3α,5β-Dihydroxy-1α-cyclopentyl)-Cis-5-Heptenoic Acid]
[1]; dose 1.5 μg
  Percent Inhibition of the bronchoconstricting effects of a standard dose of acetylcholine: 64%
[1]; dose 15 μg
  Percent Inhibition of the bronchoconstricting effects of a standard dose of acetylcholine: 78%
[2]
  Δb.p.: -16 mm. Hg

From patent US3959363A, “15-Ethynyl-PFG2β” (American Home Products Corporation, priority 1974, dated 1976)
